# Where “and” joins values, the source holds several entries; their conditions need not be identical. Identical values can stand only once.
# Experiments:
# [1] = tested on: L. donovani MHOM/ET/67/HU3 transgenic intracellular amastigotes; experiment: L. donovani intracellular amastigote assay (luciferase, THP-1 macrophages); type: cell-based; details: Leishmania donovani, THP-1, 72 h, read-out: EC50 L. donovani
# Experimental: Leishmania donovani MHOM/ET/67/HU3 cells with the luciferase gene integrated into the parasite genome was obtained as described. Parasites were grown at 28°C in RPMI 1640-modified medium supplemented with 20% heat-inactivated fetal bovine serum (iFBS, Invitrogen) with […] of hygromycin B.
# THP-1 cells were differentiated into macrophages with 20 ng/mL of PMA in a 96-well plate at 3 × 10^4 cells per well for 48 hours followed by 24 hours of culture in fresh medium. Cells were then infected with transgenic stationary L. donovani MHOM/ET/67/HU3 promastigotes expressing the luciferase gene at a multiplicity of infection (MOI) of 10. A volume of 100 μL of culture media containing the test compounds was added to each well and the plates were incubated at 37°C for 72 hours. Luminescence was measured using the Promega kit luciferase assay system.
# [2] = tested on: T. cruzi Tulahuen C4 epimastigotes; experiment: T. cruzi epimastigotes growth inhibition assay (resazurin); type: cell-based, Trypanosoma cruzi; details: 72 h; for EC30, epimastigotes / EC70, epimastigotes: from dose-response curve; for EC50: Trypanosoma cruzi, TULAHUEN, Tulahuen C4, 72 h, resazurin
# Experimental: (§1) The Trypanosoma cruzi Tulahuen strain used is a genetically modified strain that expresses the Escherichia coli β-galactosidase gene, lacZ [31]. It was kindly supplied by Marcel Kaiser (Swiss Tropical and Public Health Institute). The T. cruzi Tulahuen C4 strain was cultured in RPMI-1640 supplemented with 10% inactivated FBS (iFBS), 1.7 mM L-glutamine, 100 U/mL penicillin, and […] at 37°C and 5% CO2. L6 rat skeletal muscle cells were purchased from ATCC (reference CRL-1458) and used as host cells for infection with transgenic T. cruzi trypomastigotes. Epimastigotes were obtained by differentiation in LIT medium with 10% iFBS at 28°C from trypomastigote forms.
# A resazurin-based assay was set up in 96-well microplates containing 10 μL of test compound at concentrations ranging from 0.39 to 200 μM and log phase parasites seeded at 2 × 10^5 cells per well in a final volume of 100 μL. Maximum DMSO percentage in the well was 0.2%. Positive and negative growth controls were included. Following 72 hour incubation at 28°C with orbital shaking, 10 μL of resazurin solution were added to each well and the plates were returned to the incubator for 4 hours. Resazurin reduction was correlated to cell viability by fluorescence measurement with excitation and emission wavelength bands centered at 550 and 590 nm, respectively, in a Tecan Infinite 200 microplate reader.
# [3] = tested on: T. cruzi Tulahuen C4 trypomastigotes; experiment: T. cruzi trypomastigote viability assay (resazurin fluorescence); type: cell-based, Trypanosoma cruzi; details: Tulahuen C4, 72 hours at 37°C
# Experimental: Tulahuen T. cruzi trypomastigotes were recovered 6 days post infection from the supernatant of harvested infected L6 cells cultures after 3 hours at 37°C. 90 μL of parasite culture at a density of 5 × 10^6 cells in RPMI 1640 media were dispensed into 96 Nunc flat bottom assay plates containing 10 μL of each compound.
# In the fluorescence assay, plates were incubated for 24 and 48 hours after which 10 μL of the resazurin solution were added to each well. Plates were further incubated for 24 hours and fluorescence was measured at 550/590 nm using a Tecan Infinite 200 microplate reader. […] Final maximal DMSO percentage in the well was 0.1% and compound concentrations ranged from 0.2 to 100 μM.
# [4] = tested on: T. cruzi Tulahuen C4 intracellular amastigotes; experiment: β-D-galactosidase transgenic T. cruzi assay (intracellular amastigotes in L6 cells, CPRG); type: cell-based; details: Trypanosoma cruzi; for inhibition at 0.00152588 µM / inhibition at 0.00305176 µM / inhibition at 0.00610352 µM / inhibition at 0.012207 µM / inhibition at 0.0244141 µM / inhibition at 0.0488281 µM / inhibition at 0.0976562 µM / inhibition at 0.195312 µM / inhibition at 0.390625 µM / inhibition at 0.78125 µM / inhibition at 1.5625 µM / inhibition at 3.125 µM / inhibition at 6.25 µM / inhibition at 12.5 µM / inhibition at 25 µM / inhibition at 50 µM: TULAHUEN, L6, T. cruzi amastigotes, 96-hour treatment, read-out: Growth inhibition (%) Average; for EC50: Tulahuen C4 in L6 cells, 96 h, CPRG
# Experimental: as §1
# A Thermo Scientific Multidrop Combi dispenser was used to dispense 55 μL of T. cruzi infected L6 cells (2 ×10^3 cells per well) into 384-well Corning assay plates already containing 5 μL of each compound at concentrations ranging from 0.0015 to 50 μM and controls. The plates were incubated at 37°C for 96 hours upon which 15 μL of lysis buffer (0.5 mM CPRG, 0.5% NP40) were added to each well and further incubated for 4 hours in the dark. Absorbance at 585 nm was measured in a Perkin Elmer Envision plate reader.
# L6 rat myoblast cells = experiment: Cytotoxicity evaluation in L6 cells (resazurin); type: cell-based; details: Rattus norvegicus, Myoblast; 72 h, resazurin; read-out: EC50 L6
# Experimental: One hundred microliters of supplemented RPMI 1640 medium containing the compounds and controls were added to L6 rat myoblast cells previously seeded (4,000 cells per well) in a 96-well microplate. After 72 hours at 37°C the viable cell number was determined by resazurin reduction. 20 μL of resazurin at 0.11 mg/mL in PBS 1X were added to each well and incubated in the dark for 2 hours at 37°C. Cell viability was estimated by measuring the final fluorescence at 570–590 nm in a Tecan Infinite F200 plate reader.
# T. cruzi epimastigotes = experiment: FACS analysis of T. cruzi epimastigotes (cell cycle, size and complexity); type: cell-based, Trypanosoma cruzi; details: for Foward Scatter (FSC) - Geometric Mean, single experiment / Foward Scatter (FSC) - Geometric Mean, Average / size reduction with respect to untreated parasites: 72 h
# Experimental: FACS analysis was used to study cell cycle progression and cellular parameters such as size and complexity. 5 × 10^6 T. cruzi epimastigotes were harvested by centrifugation at 1,000×g and 4°C after 72 hours of incubation in a 6-well plate in the presence and in absence of test compounds. Pellets of cells were washed with 5 mL of PBS and fixed in a solution of 70% ice-cold ethanol/PBS at -20°C overnight. Cells were then collected by centrifugation, washed with PBS and stained with 40 μg/mL of propidium iodide in PBS containing 10 μg/mL of RNase A at 37°C for 30 minutes. Fluorescence was monitored with a Becton Dickinson FACSCalibur using BD CellQuest Pro version 4.0.2 software with a total of 10,000 events acquired for each sample. The different cell populations as well as mean cellular parameters were determined by FlowJo software.
# [5] = Trypanosoma cruzi, TULAHUEN, 72 h
# [6] = 72-hour drug exposure, FACS with PI staining, EC30, average
# [7] = 72-hour drug exposure, FACS with PI staining, EC30, single replicates
# [8] = 72-hour drug exposure, FACS with PI staining, EC70, average
# [9] = 72-hour drug exposure, FACS with PI staining, EC70, single replicates
compound,measurement,setting,value
"C/C1=C\[C@H](C)[C@@H](O)C[C@@H](O)/C(C)=C/[C@H](C)C[C@@H](C)CC[C@@H]([C@@H](C)C(=O)O)OC(=O)[C@@H](C)C1 [Strasseriolide D, strasseriolide D]",EC50,[1],13.6 µM
same,"EC30, epimastigotes",[2],36 µM
same,"EC70, epimastigotes",[2],68 µM
same,EC50,[2],42.4 µM
same,EC50,[3]; [5],3.4 µM
same,EC50,[3],3.38 µM
same,inhibition at 0.00152588 µM,[4],7.88%
same,inhibition at 0.00305176 µM,[4],6.33%
same,inhibition at 0.00610352 µM,[4],2.28%
same,inhibition at 0.012207 µM,[4],4.26%
same,inhibition at 0.0244141 µM,[4],4.84%
same,inhibition at 0.0488281 µM,[4],2.75%
same,inhibition at 0.0976562 µM,[4],2.22%
same,inhibition at 0.195312 µM,[4],7.23%
same,inhibition at 0.390625 µM,[4],4.8%
same,inhibition at 0.78125 µM,[4],4.2%
same,inhibition at 1.5625 µM,[4],8.54%
same,inhibition at 3.125 µM,[4],21.2%
same,inhibition at 6.25 µM,[4],66.1%
same,inhibition at 12.5 µM,[4],100%
same,inhibition at 25 µM,[4],112%
same,inhibition at 50 µM,[4],113%
same,EC50,[4],5.61 µM
same,EC50,L6 rat myoblast cells,> 100 µM
same,"% Cells G1, Average",T. cruzi epimastigotes; [6],48.0485%
same,"% Cells G2/M, Average",T. cruzi epimastigotes; [6],33.3241%
same,"% Cells S, Average",T. cruzi epimastigotes; [6],15.9233%
same,"% Cells post G2/M, Average",T. cruzi epimastigotes; [6],0.01106%
same,"% Cells sub-G1, Average",T. cruzi epimastigotes; [6],2.693%
same,"% Cells G1, individual replicates",T. cruzi epimastigotes; [7],50.4058% and 45.6911%
same,"% Cells G2/M, individual replicates",T. cruzi epimastigotes; [7],32.7574% and 33.8908%
same,"% Cells S, individual replicates",T. cruzi epimastigotes; [7],14.3321% and 17.5145%
same,"% Cells post G2/M, individual replicates",T. cruzi epimastigotes; [7],0.6783% and -0.6562%
same,"% Cells sub-G1, individual replicates",T. cruzi epimastigotes; [7],1.8263% and 3.56%
same,"% Cells G1, Average",T. cruzi epimastigotes; [8],50.7294%
same,"% Cells G2/M, Average",T. cruzi epimastigotes; [8],37.5216%
same,"% Cells S, Average",T. cruzi epimastigotes; [8],12.1278%
same,"% Cells sub-G1, Average",T. cruzi epimastigotes; [8],1.9646%
same,"% Cells G1, individual replicates",T. cruzi epimastigotes; [9],49.2764% and 52.1825%
same,"% Cells G2/M, individual replicates",T. cruzi epimastigotes; [9],34.0219% and 41.0212%
same,"% Cells S, individual replicates",T. cruzi epimastigotes; [9],15.873% and 8.383%
same,"% Cells post G2/M, individual replicates",T. cruzi epimastigotes; [9],-1.15% and -3.537%
same,"% Cells sub-G1, individual replicates",T. cruzi epimastigotes; [9],1.978% and 1.951%
same,"Foward Scatter (FSC) - Geometric Mean, single experiment",T. cruzi epimastigotes; EC30,81.9 and 80.4
same,"Foward Scatter (FSC) - Geometric Mean, Average","T. cruzi epimastigotes; EC30, control 96.65",81.15
same,"Foward Scatter (FSC) - Geometric Mean, single experiment",T. cruzi epimastigotes; EC70,77.8 and 72.2
same,"Foward Scatter (FSC) - Geometric Mean, Average","T. cruzi epimastigotes; EC70, control 96.65",75
same,size reduction with respect to untreated parasites,T. cruzi epimastigotes; at EC30,16%
same,size reduction with respect to untreated parasites,T. cruzi epimastigotes; at EC70,24%
"C/C1=C\[C@H](C)C(=O)C[C@@H](O)/C(C)=C/[C@H](C)C[C@@H](C)CC[C@@H]([C@@H](C)C(=O)O)OC(=O)[C@@H](C)C1 [Strasseriolide C, strasseriolide C]",EC50,[1],6.63 µM
same,"EC30, epimastigotes",[2],28 µM
same,"EC70, epimastigotes",[2],47 µM
same,EC50,[2],32.4 µM
same,EC50,[3]; [5],3.8 µM
same,EC50,[3],3.84 µM
same,inhibition at 0.00152588 µM,[4],3.17%
same,inhibition at 0.00305176 µM,[4],3.11%
same,inhibition at 0.00610352 µM,[4],4.62%
same,inhibition at 0.012207 µM,[4],9.25%
same,inhibition at 0.0244141 µM,[4],4.92%
same,inhibition at 0.0488281 µM,[4],5.95%
same,inhibition at 0.0976562 µM,[4],2.24%
same,inhibition at 0.195312 µM,[4],5.83%
same,inhibition at 0.390625 µM,[4],4.94%
same,inhibition at 0.78125 µM,[4],4.24%
same,inhibition at 1.5625 µM,[4],15.3%
same,inhibition at 3.125 µM,[4],61.8%
same,inhibition at 6.25 µM,[4],96%
same,inhibition at 12.5 µM,[4],110%
same,inhibition at 25 µM,[4],112%
same,inhibition at 50 µM,[4],115%
same,EC50,[4],3.08 µM
same,EC50,L6 rat myoblast cells,> 50 µM
same,"% Cells G1, Average",T. cruzi epimastigotes; [6],50.2633%
same,"% Cells G2/M, Average",T. cruzi epimastigotes; [6],31.3463%
same,"% Cells S, Average",T. cruzi epimastigotes; [6],16.5971%
same,"% Cells sub-G1, Average",T. cruzi epimastigotes; [6],3.151%
same,"% Cells G1, individual replicates",T. cruzi epimastigotes; [7],52.1473% and 48.3792%
same,"% Cells G2/M, individual replicates",T. cruzi epimastigotes; [7],31.009% and 31.6835%
same,"% Cells S, individual replicates",T. cruzi epimastigotes; [7],14.5117% and 18.6825%
same,"% Cells post G2/M, individual replicates",T. cruzi epimastigotes; [7],-0.5484% and -2.167%
same,"% Cells sub-G1, individual replicates",T. cruzi epimastigotes; [7],2.8804% and 3.422%
same,"% Cells G1, Average",T. cruzi epimastigotes; [8],52.4319%
same,"% Cells G2/M, Average",T. cruzi epimastigotes; [8],31.1794%
same,"% Cells S, Average",T. cruzi epimastigotes; [8],14.7538%
same,"% Cells sub-G1, Average",T. cruzi epimastigotes; [8],3.07%
same,"% Cells G1, individual replicates",T. cruzi epimastigotes; [9],54.5779% and 50.2858%
same,"% Cells G2/M, individual replicates",T. cruzi epimastigotes; [9],30.5655% and 31.7933%
same,"% Cells S, individual replicates",T. cruzi epimastigotes; [9],10.63% and 18.8776%
same,"% Cells post G2/M, individual replicates",T. cruzi epimastigotes; [9],-0.9732% and -1.896%
same,"% Cells sub-G1, individual replicates",T. cruzi epimastigotes; [9],5.2% and 0.9392%
same,"Foward Scatter (FSC) - Geometric Mean, single experiment",T. cruzi epimastigotes; EC30,81.2 and 80.4
same,"Foward Scatter (FSC) - Geometric Mean, Average","T. cruzi epimastigotes; EC30, control 96.65",80.8
same,"Foward Scatter (FSC) - Geometric Mean, single experiment",T. cruzi epimastigotes; EC70,72.5 and 74.3
same,"Foward Scatter (FSC) - Geometric Mean, Average","T. cruzi epimastigotes; EC70, control 96.65",73.4
same,size reduction with respect to untreated parasites,T. cruzi epimastigotes; at EC30,16%
same,size reduction with respect to untreated parasites,T. cruzi epimastigotes; at EC70,22%

# Source: article PMC10529594, “Strasseriolides display in vitro and in vivo activity against trypanosomal parasites and cause morphological and size defects in Trypanosoma cruzi” (PLOS Neglected Tropical Diseases, 2023)
